The test concerns the target DDR1 (Homo sapiens (Human), UniProt Q08345). Kind of test: Measurement of DDR1 enzyme inhibitory activity (phosphorylation of biotinylated peptide, time-resolved fluorescence). It is filed as biochemical. The note with it: human DDR1 enzyme, biotinylated peptide phosphorylation; read-out: DDR1 enzyme inhibition assay IC50. The procedure:
1. Measurement of DDR1 Enzyme Inhibitory Activity
The DDR1 enzyme inhibitory activity was determined with human DDR1 enzyme prepared using the baculovirus expression system, based on the inhibitory activity of phosphorylation of a biotinylated peptide ([…]) by the enzyme. The phosphorylated biotinylated peptide was detected using time-resolved fluorescence, with an anti-phosphorylated tyrosine antibody conjugated with europium cryptate and streptavidin conjugated with XL665 which is a derivative of allophycocyanin.

Among the data in US10005739B2, “Quinazolinone and isoquinolinone derivative” (CHUGAI SEIYAKU KABUSHIKI KAISHA, priority 2013, dated 2018) are IC50 values, retold here.

DDR1, sequence (Q08345 19-913): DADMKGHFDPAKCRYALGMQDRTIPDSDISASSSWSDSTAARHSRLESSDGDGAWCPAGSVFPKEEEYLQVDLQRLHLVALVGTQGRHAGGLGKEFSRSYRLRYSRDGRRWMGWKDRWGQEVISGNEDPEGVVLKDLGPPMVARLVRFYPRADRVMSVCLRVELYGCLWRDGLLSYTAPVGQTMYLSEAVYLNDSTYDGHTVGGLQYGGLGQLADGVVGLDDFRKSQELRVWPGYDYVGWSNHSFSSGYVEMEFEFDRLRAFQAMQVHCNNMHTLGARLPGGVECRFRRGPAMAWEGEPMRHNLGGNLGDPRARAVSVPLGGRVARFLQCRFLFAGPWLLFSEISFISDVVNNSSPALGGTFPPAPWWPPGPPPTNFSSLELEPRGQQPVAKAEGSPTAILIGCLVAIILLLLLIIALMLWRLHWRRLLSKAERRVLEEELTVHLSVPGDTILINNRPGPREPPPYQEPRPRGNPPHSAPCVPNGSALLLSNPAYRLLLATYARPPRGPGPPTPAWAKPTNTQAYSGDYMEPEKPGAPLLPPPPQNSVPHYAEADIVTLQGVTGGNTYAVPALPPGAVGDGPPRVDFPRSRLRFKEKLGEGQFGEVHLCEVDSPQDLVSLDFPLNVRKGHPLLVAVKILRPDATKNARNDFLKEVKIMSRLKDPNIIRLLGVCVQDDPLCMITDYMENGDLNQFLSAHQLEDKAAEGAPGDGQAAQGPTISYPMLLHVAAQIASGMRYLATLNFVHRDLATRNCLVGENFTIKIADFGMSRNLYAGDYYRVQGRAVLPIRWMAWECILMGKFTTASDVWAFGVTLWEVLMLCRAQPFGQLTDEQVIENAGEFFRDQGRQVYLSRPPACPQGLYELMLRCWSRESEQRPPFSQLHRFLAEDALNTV

Regarding `CCS(=O)(=O)c1ccc(N)cc1Cn1ccc2ccc(OC(F)(F)F)cc2c1=O` [Compound F-10, 2-[(5-Amino-2-ethylsulfonylphenyl)methyl]-7-(trifluoromethoxy)isoquinolin-1-one], the IC50 (commonly the concentration at which inhibition is half-maximal) came to 1340 nM. For the compound `CCS(=O)(=O)c1ccc(F)cc1Nn1cnc2c(Br)cc(OC(F)(F)F)cc2c1=O` [Compound C-20, 8-Bromo-3-(2-ethylsulfonyl-5-fluoroanilino)-6-(trifluoromethoxy)quinazolin-4-one], the IC50 is 150 nM. For `CCS(=O)(=O)c1ccc(C#N)cc1Nn1cnc2ncc(Br)cc2c1=O` [Compound C-8, 3-[(6-Bromo-4-oxopyrido[2,3-d]pyrimidin-3-yl)amino]-4-ethylsulfonylbenzonitrile], the IC50 is 6400 nM. Regarding `CCSc1ccc(C#N)cc1Nn1cnc2cc(C)c(Br)cc2c1=O` [Compound C-5, 3-[(6-bromo-7-methyl-4-oxoquinazolin-3-yl)amino]-4-ethylsulfanylbenzonitrile], the IC50 turned out to be 130 nM. With `CCSc1ccc(Cl)cc1Nn1cnc2c(Br)cc(OC(F)(F)F)cc2c1=O` [Compound A-46, 8-Bromo-3-(5-chloro-2-ethylsulfanylanilino)-6-(trifluoromethoxy)quinazolin-4-one] the figure was 420 nM; with `CCS(=O)(=O)c1ccc(Cl)cc1Cn1cnc2cc(C)c(I)cc2c1=O` [Compound E-8, 3-[(5-Chloro-2-ethylsulfonylphenyl)methyl]-6-iodo-7-methylquinazolin-4-one], 200 nM; with `CCSc1ccc(Cl)cc1Cn1cnc2c(Br)cc(OC(F)(F)F)cc2c1=O` [Compound E-11, 8-bromo-3-[(5-chloro-2-ethylsulfanylphenyl)methyl]-6-(trifluoromethoxy)quinazolin-4-one], 540 nM. Regarding `CCCS(=O)(=O)c1ccc(Cl)cc1Nn1cnc2c(Br)cc(C)cc2c1=O` [Compound B-4, 8-Bromo-3-(5-chloro-2-propylsulfonylanilino)-6-methylquinazolin-4-one], the IC50 turned out to be 110 nM. With `CCSc1ccc(Cl)cc1Nn1cnc2c(Br)cc(C)cc2c1=O` [Compound A-1, 8-Bromo-3-(5-chloro-2-ethylsulfanylanilino)-6-methylquinazolin-4-one], the IC50 amounted to 170 nM. With `CCS(=O)(=O)c1ccc(F)cc1Nn1cnc2c(Br)cc(C(F)(F)F)cc2c1=O` [Compound C-22, 8-Bromo-3-(2-ethylsulfonyl-5-fluoroanilino)-6-(trifluoromethyl)quinazolin-4-one] the figure was 300 nM. For the compound `CCSc1ccc(Cl)cc1Nn1cnc2ccc(I)cc2c1=O` [Compound A-60, 3-(5-Chloro-2-ethylsulfanylanilino)-6-iodoquinazolin-4-one], the IC50 came to 220 nM. Then `CCS(=O)(=O)c1ccc(Cl)cc1Nn1cnc2cnc(Cl)cc2c1=O` [Compound A-15, 6-Chloro-3-(5-chloro-2-ethylsulfonylanilino)pyrido[3,4-d]pyrimidin-4-one], with 1230 nM; and `CCSc1ccc(Cl)cc1Cn1cnc2cc(C)c(Br)cc2c1=O` [Compound E-5, 6-Bromo-3-[(5-chloro-2-ethylsulfanylphenyl)methyl]-7-methylquinazolin-4-one], with 950 nM. Turning to `CCOc1ccc2ncn(Nc3cc(Cl)ccc3SCC)c(=O)c2c1` [Compound A-36, 3-(5-Chloro-2-ethylsulfanylanilino)-6-ethoxyquinazolin-4-one], the IC50 is 250 nM. With `CCS(=O)(=O)c1ccc(Cl)cc1Nn1cnc2cc(C)c(Br)cc2c1=O` [Compound A-8, 6-Bromo-3-(5-chloro-2-ethylsulfonylanilino)-7-methylquinazolin-4-one], the IC50 was found to be 550 nM. Take `CCCc1ccc2ncn(Nc3cc(Cl)ccc3SCC)c(=O)c2c1` [Compound A-54, 3-(5-Chloro-2-ethylsulfanylanilino)-6-propylquinazolin-4-one]: the IC50 is 330 nM. As for `CCS(=O)(=O)c1ccc(Br)cc1Nn1cnc2c(Br)cc(OC(F)(F)F)cc2c1=O` [Compound C-24, 8-Bromo-3-(5-bromo-2-ethylsulfonylanilino)-6-(trifluoromethoxy)quinazolin-4-one], the IC50 was 280 nM.
